Test [1] addresses CSF1R (Homo sapiens, UniProt P07333). The experiment in a line: Ambit kinase phage display ATP-binding-site ligand binding assay. As to conditions: read-out: percent inhibition of binding.
Text: (§4) This assay is based on ligand-affinity/protein kinase phage display and was employed essentially as described by Fabian et. al [Nature Biotech. […] In this assay, protein kinases are cloned into T7 bacteriophage which express the kinase fusion proteins on the phage capsid. T7 kinase-tagged phage are then screened for binding to ATP-binding-site ligands that have been immobilized on a solid support. Phage are screened for binding to the anchored ligands both in the presence of test compound and in its absence (control). Elution of the bound phage by free ligand (ATP-binding site ligand that is not immobilized on a solid support) followed by determination of the phage titre provides a reliable measure of the ability of test compounds to block binding of target kinases to resin-bound ATP-binding-site ligands.
(§5) T7 kinase-tagged phage strains were grown in parallel in microtiter plates in a proprietary bacterial host derived from E. Coli strain BL21. E. Coli were grown to a log phase, infected with T7 kinase-tagged phage, and incubated while shaking at 32° C. until bacterial lysis (approx. 90 min). Lysates were centrifuged (6,000 g) and filtered (0.2 μm). […] The phage titre of the eluates was measured by quantitative PCR or by plaque assays. […]
In test [2] the target is T1, RSK2 (Homo sapiens, UniProt P51812).
T1 construct: purchased SignalChem
The experiment in a line: SignalChem radioisotope protein kinase assay. Format: biochemical. As to conditions: 5 μl of 100 μM stock solution in 25 μl. From the text:
(§1) The various protein kinase targets to be employed in the kinase profiling assay were cloned, expressed and purified in-house at SignalChem (Richmond, BC, Canada) using proprietary methods. Quality control testing is routinely performed on each of the SignalChem targets to ensure compliance to acceptable standards. Protein substrates employed in the target profiling process were synthesized internally. ^33P-ATP was purchased from PerkinElmer. All other materials were of standard grade. Compound 10 (FIG. 4) was supplied to SignalChem in a powder form. It was reconstituted in DMSO to form a stock solution which was then diluted with 10% DMSO to form a working stock solution (100 μM) that was then profiled against the various protein kinase targets. The assay conditions for the various protein kinase targets were optimized to yield acceptable enzymatic activity. In addition, the assays were optimized to give high signal-to-noise ratio.
(§2) SignalChem uses a radioisotope assay format for profiling evaluation of protein kinase targets. Protein kinase assays were performed in triplicate at ambient temperature for 20-40 min (depending on the target) in a final volume of 25 μl according to the following assay reaction recipe: • Component 1: 5 μl of diluted active protein kinase target (˜10-40 nM final protein concentration in the assay) • Component 2: 5 μl of stock solution of substrate (1-5 μg of peptide or protein substrate) • Component 3: 5 μl of kinase assay buffer or protein kinase activator in kinase assay buffer • Component 4: 5 μl of Compound 10 (100 μM stock solution) or 10% DMSO • Component 5: 5 μl of 33P-ATP (25 μM stock solution, 0.8 μCi)
(§3) The assay was initiated by the addition of ^33P-ATP and the reaction mixture incubated at ambient temperature for 20-40 minutes, depending on the protein kinase target. After the incubation period, the assay was terminated by spotting 10 μl of the reaction mixture onto a Millipore Multiscreen plate. The Millipore Multiscreen plate was washed 3 times for approximately 15 minutes each in a 1% phosphoric acid solution. The radioactivity on the P81 plate was counted in the presence of scintillation fluid in a Trilux scintillation counter. Blank control, which included all the assay components except the addition of the appropriate substrate (replaced with equal volume of assay dilution buffer), was set up for each protein kinase target. The corrected activity for each protein kinase target was determined by removing the blank control value.

For test [3], the target named is PDGFRβ (Homo sapiens, UniProt P09619). The test can be described thus: SignalChem radioisotope protein kinase assay. The format is biochemical. Conditions: 5 μl of 100 μM stock solution in 25 μl.
Text: as §1, §2, §3

Test [4] addresses MARK1 (Homo sapiens, UniProt Q9P0L2). The experiment in a line: SignalChem radioisotope protein kinase assay. As to conditions: 5 μl of 100 μM stock solution in 25 μl. Format: biochemical.
Text: as §1, §2, §3

In test [5] the target is FRK (Homo sapiens, UniProt P42685). The test can be described thus: SignalChem radioisotope protein kinase assay. Conditions: 5 μl of 100 μM stock solution in 25 μl. Format: biochemical.
Text: as §1, §2, §3

Test [6] concerns the target P38γ (Homo sapiens, UniProt P53778). The test can be described thus: SignalChem radioisotope protein kinase assay. As to conditions: 5 μl of 100 μM stock solution in 25 μl. Format: biochemical.
Text: as §1, §2, §3

Test [7] concerns the target ERK2 (Homo sapiens, UniProt P28482). The test can be described thus: Ambit kinase phage display ATP-binding-site ligand binding assay. As to conditions: read-out: percent inhibition of binding.
Text: (§6) In this assay, protein kinases are cloned into T7 bacteriophage which express the kinase fusion proteins on the phage capsid. T7 kinase-tagged phage are then screened for binding to ATP-binding-site ligands that have been immobilized on a solid support. Phage are screened for binding to the anchored ligands both in the presence of test compound and in its absence (control). Elution of the bound phage by free ligand (ATP-binding site ligand that is not immobilized on a solid support) followed by determination of the phage titre provides a reliable measure of the ability of test compounds to block binding of target kinases to resin-bound ATP-binding-site ligands.
(§7) T7 kinase-tagged phage strains were grown in parallel in microtiter plates in a proprietary bacterial host derived from E. Coli strain BL21. E. Coli were grown to a log phase, infected with T7 kinase-tagged phage, and incubated while shaking at 32° C. until bacterial lysis (approx. 90 min). Lysates were centrifuged (6,000 g) and filtered (0.2 μm). Small molecule ATP-binding-site-specific ligands were anchored to solid supports via a two step process beginning with biotin conjugation followed by treatment of the biotin/small molecule conjugate with streptavidin-coated magnetic beads. […] The phage titre of the eluates was measured by quantitative PCR or by plaque assays. […]
The target in test [8] is HCK (Homo sapiens, UniProt P08631). Described as above. Conditions: read-out: percent inhibition of binding.
Text: as §4, §5
Test [9] deals with p38-beta (Homo sapiens, UniProt Q15759). The description is as above. Conditions: read-out: percent inhibition of binding.
p38-beta, sequence (Q15759 whole entry): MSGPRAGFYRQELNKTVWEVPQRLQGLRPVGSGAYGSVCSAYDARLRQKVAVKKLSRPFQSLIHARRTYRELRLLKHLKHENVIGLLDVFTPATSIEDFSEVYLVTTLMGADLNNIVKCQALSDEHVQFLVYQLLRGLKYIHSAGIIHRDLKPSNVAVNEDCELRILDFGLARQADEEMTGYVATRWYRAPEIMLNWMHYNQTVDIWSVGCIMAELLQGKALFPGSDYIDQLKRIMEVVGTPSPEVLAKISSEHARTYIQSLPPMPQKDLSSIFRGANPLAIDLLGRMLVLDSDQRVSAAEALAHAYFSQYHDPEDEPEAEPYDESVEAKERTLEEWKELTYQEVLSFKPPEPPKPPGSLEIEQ
Text: as §6, §7
Test [10] concerns the target SNF1LK (Homo sapiens, UniProt P57059). The test is described as above. Conditions: read-out: percent inhibition of binding.
Text: as §6, §7
The target of test [11] is EPHA5 (Homo sapiens, UniProt P54756). Described as above. As to conditions: read-out: percent inhibition of binding.
EPHA5, sequence (P54756 25-1037): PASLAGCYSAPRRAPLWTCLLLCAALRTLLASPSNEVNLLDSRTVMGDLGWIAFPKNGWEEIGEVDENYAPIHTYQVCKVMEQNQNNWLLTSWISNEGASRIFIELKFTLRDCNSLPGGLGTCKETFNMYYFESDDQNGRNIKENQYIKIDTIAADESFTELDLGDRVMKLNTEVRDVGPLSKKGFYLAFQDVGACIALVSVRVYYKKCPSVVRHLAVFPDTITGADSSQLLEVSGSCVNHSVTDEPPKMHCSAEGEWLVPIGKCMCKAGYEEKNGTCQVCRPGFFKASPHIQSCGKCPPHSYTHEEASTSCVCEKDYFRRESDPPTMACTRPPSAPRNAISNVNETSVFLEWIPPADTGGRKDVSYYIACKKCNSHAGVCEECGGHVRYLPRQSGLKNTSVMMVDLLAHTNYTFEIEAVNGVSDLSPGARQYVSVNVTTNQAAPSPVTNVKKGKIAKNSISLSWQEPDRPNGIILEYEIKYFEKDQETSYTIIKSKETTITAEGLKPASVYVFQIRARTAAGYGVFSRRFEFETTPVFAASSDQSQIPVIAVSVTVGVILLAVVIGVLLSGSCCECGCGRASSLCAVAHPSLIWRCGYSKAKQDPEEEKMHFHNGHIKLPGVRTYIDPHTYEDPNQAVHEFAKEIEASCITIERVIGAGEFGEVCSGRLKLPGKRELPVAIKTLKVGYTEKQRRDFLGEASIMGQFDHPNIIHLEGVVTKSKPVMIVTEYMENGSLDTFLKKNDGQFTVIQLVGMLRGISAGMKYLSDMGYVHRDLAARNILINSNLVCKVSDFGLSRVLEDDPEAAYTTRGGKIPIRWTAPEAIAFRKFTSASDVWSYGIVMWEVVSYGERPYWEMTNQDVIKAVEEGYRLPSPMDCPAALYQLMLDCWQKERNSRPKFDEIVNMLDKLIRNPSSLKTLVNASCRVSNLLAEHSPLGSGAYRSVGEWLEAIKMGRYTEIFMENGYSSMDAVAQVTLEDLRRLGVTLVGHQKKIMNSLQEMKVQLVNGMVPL
Text: as §6, §7
For test [12], the target named is DAPK1 (Homo sapiens, UniProt P53355). The test is described as above. Conditions: read-out: percent inhibition of binding.
Text: as §6, §7
Test [13] has as its target RPSGKA1 (Homo sapiens, UniProt Q15418). The test is described as above. Conditions: read-out: % Inhibition of binding to ATP-binding-site ligand.
Text: as §6, §7
The target in test [14] is CAMKK2 (Homo sapiens, UniProt Q96RR4). The description is as above. Conditions: read-out: percent inhibition of binding.
CAMKK2, sequence (Q96RR4 whole entry): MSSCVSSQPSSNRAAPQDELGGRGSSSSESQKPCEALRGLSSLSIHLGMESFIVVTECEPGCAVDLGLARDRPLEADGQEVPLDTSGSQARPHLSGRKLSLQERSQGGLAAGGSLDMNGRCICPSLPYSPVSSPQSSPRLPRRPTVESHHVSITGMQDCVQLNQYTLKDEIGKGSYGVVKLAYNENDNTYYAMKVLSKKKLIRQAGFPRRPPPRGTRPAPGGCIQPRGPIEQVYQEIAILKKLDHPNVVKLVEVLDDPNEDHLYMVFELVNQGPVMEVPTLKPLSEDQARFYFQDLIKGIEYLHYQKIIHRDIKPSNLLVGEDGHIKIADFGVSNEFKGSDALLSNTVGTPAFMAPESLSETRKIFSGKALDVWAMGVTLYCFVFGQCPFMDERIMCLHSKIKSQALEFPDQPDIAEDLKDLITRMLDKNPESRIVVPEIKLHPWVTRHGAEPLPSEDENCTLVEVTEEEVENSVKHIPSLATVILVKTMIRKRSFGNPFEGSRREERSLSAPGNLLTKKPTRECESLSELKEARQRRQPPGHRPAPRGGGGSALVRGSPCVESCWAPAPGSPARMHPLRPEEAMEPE
Text: as §6, §7
For test [15], the target named is CIT (Homo sapiens, UniProt O14578). The test is described as above. Conditions: read-out: percent inhibition of binding.
CIT, sequence (O14578 whole entry): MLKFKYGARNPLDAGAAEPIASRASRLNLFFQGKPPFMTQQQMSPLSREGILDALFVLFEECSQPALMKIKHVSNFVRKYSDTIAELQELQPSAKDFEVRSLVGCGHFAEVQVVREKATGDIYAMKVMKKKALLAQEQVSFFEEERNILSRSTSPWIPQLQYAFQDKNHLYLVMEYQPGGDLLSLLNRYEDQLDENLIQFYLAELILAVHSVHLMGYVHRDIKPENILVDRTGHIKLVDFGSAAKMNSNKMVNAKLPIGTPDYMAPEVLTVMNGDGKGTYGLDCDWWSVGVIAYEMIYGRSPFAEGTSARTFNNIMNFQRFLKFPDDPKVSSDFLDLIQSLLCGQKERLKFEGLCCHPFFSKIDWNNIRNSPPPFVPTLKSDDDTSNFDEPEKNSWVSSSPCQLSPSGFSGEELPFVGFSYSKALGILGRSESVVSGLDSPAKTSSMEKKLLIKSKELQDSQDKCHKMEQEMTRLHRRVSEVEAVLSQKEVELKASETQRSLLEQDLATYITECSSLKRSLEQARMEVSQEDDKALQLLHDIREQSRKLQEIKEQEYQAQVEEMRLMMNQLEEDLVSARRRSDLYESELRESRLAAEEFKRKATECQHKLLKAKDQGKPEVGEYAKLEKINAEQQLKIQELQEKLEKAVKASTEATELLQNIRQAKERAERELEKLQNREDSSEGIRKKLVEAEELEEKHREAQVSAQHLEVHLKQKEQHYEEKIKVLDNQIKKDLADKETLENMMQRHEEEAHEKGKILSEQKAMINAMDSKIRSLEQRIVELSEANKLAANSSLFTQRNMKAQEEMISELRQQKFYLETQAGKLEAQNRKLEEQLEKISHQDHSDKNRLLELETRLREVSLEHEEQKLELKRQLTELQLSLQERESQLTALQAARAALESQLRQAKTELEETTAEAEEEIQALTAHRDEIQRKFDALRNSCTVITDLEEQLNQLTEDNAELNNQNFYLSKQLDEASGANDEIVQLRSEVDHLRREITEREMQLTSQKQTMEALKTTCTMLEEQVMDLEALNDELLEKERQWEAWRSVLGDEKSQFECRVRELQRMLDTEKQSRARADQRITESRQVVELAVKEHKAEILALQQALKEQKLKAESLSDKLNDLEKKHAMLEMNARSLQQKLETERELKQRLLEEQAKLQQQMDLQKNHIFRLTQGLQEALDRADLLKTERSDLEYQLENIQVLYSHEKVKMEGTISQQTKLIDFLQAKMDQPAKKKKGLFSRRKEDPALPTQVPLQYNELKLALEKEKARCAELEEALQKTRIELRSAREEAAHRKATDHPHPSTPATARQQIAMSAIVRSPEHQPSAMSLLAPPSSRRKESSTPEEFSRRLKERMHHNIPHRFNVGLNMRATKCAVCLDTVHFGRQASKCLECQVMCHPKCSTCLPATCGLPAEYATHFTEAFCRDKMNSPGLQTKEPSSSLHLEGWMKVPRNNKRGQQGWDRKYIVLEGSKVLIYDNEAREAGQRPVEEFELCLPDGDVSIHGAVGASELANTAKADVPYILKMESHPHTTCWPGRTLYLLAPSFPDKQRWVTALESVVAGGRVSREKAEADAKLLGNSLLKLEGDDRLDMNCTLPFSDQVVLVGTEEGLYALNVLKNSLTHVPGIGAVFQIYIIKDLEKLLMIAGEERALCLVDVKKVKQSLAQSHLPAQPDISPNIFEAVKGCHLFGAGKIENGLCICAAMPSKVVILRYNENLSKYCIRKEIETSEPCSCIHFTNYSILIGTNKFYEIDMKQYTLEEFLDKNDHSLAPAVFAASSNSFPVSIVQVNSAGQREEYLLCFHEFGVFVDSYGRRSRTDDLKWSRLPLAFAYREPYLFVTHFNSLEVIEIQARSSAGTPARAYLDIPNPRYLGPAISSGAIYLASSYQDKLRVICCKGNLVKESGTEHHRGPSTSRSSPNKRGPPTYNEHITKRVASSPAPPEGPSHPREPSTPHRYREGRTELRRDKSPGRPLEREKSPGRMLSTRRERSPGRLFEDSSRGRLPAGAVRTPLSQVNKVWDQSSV
Text: as §6, §7
The target of test [16] is FLT3 (Homo sapiens, UniProt P36888). The description is as above. As to conditions: read-out: % Inhibition of binding to ATP-binding-site ligand.
Text: as §4, §5
Test [17] deals with MET (Homo sapiens, UniProt P08581). The test is described as above. As to conditions: read-out: percent inhibition of binding.
Text: as §4, §5
In test [18] the target is TXK (Homo sapiens, UniProt P42681). Described as above. Conditions: read-out: percent inhibition of binding.
Text: as §4, §5
The target of test [19] is BTK (Homo sapiens, UniProt Q06187). The test can be described thus: SignalChem radioisotope protein kinase assay. The format is biochemical. Also noted: host or cells: T7 phage in an E. coli BL21-derived host. Conditions: 5 μl of 100 μM stock solution in 25 μl.
Text: as §1, with “ratio. […]” for “ratio.”
The assay was initiated by the addition of ^33P-ATP and the reaction mixture incubated at ambient temperature for 20-40 minutes, depending on the protein kinase target. […] The radioactivity on the P81 plate was counted in the presence of scintillation fluid in a Trilux scintillation counter. […] The corrected activity for each protein kinase target was determined by removing the blank control value.

The target of test [20] is EGFR(L747-T751del,Sins) (Homo sapiens, UniProt P00533, DEL747-750/T751S). The experiment in a line: Ambit kinase phage display ATP-binding-site ligand binding assay. Conditions: read-out: percent inhibition of binding.
EGFR(L747-T751del,Sins), sequence (P00533 with tags, fused parts or gaps DEL747-750/T751S limits assumed): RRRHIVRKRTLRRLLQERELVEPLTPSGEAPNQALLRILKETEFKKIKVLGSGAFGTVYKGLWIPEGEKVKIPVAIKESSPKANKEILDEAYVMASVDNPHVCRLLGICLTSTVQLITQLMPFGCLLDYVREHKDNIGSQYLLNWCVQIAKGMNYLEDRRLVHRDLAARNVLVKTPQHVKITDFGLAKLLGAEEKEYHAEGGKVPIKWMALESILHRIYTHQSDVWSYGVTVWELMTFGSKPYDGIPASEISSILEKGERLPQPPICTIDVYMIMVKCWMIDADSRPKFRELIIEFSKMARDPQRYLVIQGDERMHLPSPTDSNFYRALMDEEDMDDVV
Text: as §4, §5
The target in test [21] is CLK4 (Homo sapiens, UniProt Q9HAZ1). Described as above. As to conditions: read-out: percent inhibition of binding.
Text: as §6, §7
Test [22] has as its target ALK6 (Homo sapiens, UniProt O00238). The description is as above. Conditions: read-out: % Inhibition of binding to ATP-binding-site ligand.
Text: as §4, §5
The target in test [23] is CLK3 (Homo sapiens, UniProt P49761). The test is described as above. As to conditions: read-out: percent inhibition of binding.
Text: as §6, §7

The values below come from US20100152434A1, “Protein Kinase-binding Nucleosides and Associated Methods” (priority 2007, published 2010).

RPSGKA1, sequence (Q15418 whole entry): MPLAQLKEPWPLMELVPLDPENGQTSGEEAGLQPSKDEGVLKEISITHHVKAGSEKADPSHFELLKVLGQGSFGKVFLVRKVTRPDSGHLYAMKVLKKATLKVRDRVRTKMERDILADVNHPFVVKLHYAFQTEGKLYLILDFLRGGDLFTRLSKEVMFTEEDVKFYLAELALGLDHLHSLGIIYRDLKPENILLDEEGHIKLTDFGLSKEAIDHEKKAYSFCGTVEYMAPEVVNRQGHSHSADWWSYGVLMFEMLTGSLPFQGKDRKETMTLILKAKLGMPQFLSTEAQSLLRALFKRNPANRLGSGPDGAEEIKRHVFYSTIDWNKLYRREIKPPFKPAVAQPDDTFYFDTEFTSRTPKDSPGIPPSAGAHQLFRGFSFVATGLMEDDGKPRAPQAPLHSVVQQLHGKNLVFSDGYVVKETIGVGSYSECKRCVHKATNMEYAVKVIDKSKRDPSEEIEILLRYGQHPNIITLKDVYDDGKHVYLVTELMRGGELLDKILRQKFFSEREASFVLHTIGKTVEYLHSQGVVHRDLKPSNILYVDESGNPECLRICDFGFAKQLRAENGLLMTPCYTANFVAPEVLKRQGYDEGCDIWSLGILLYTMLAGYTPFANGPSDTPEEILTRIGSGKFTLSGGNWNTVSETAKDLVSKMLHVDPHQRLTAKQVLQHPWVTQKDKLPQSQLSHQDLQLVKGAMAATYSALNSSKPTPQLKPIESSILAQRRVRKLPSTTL

For the molecule `CCOC(=O)C[C@@H]1C(O[Si](C)(C)C(C)(C)C)[C@H](n2cnc3c(NC(=O)Nc4ccccc4)ncnc32)O[C@@H]1CNC(=O)NC` (some centres unmarked) [Compound 10], the inhibition at 10 µM in [1], in test [7], in test [8], in test [9], in test [10] and in [11] was 20 to 29% throughout. In addition, the inhibition at 10 µM was 20 to 29% in test [12]; 40% in [13]; 20 to 29% in [14]; 20 to 29% in [15]; 31% in test [16]; 20 to 29% in test [17]. In addition, the inhibition at 10 µM in [18] was 20 to 29%; in [20], 20 to 29%; in [21], 20 to 29%; in [22], 47%; in test [23], 20 to 29%. Besides, the “% Activity Change” value in test [2] is −4%; in test [3], −7%; in test [4] it was 5%; in test [5], 24%; in test [6] it was 14%; in test [19], 10%.
